The target in this assay is Kir6.2/SUR2A KATP channel (mKir6.2 + rSUR2A) (Rattus norvegicus, UniProt Q61743+Q63563). Nature of the assay: inside-out excised patch clamp, Hill fit. It is filed as biochemical. For orientation: Patch clamp records ionic current or voltage across a cell membrane.

Consider two compounds from paper doi:10.1101/209783v1 (biorxiv, 2017).

Chain of Kir6.2/SUR2A KATP channel (mKir6.2 + rSUR2A) (Q63563 whole entry): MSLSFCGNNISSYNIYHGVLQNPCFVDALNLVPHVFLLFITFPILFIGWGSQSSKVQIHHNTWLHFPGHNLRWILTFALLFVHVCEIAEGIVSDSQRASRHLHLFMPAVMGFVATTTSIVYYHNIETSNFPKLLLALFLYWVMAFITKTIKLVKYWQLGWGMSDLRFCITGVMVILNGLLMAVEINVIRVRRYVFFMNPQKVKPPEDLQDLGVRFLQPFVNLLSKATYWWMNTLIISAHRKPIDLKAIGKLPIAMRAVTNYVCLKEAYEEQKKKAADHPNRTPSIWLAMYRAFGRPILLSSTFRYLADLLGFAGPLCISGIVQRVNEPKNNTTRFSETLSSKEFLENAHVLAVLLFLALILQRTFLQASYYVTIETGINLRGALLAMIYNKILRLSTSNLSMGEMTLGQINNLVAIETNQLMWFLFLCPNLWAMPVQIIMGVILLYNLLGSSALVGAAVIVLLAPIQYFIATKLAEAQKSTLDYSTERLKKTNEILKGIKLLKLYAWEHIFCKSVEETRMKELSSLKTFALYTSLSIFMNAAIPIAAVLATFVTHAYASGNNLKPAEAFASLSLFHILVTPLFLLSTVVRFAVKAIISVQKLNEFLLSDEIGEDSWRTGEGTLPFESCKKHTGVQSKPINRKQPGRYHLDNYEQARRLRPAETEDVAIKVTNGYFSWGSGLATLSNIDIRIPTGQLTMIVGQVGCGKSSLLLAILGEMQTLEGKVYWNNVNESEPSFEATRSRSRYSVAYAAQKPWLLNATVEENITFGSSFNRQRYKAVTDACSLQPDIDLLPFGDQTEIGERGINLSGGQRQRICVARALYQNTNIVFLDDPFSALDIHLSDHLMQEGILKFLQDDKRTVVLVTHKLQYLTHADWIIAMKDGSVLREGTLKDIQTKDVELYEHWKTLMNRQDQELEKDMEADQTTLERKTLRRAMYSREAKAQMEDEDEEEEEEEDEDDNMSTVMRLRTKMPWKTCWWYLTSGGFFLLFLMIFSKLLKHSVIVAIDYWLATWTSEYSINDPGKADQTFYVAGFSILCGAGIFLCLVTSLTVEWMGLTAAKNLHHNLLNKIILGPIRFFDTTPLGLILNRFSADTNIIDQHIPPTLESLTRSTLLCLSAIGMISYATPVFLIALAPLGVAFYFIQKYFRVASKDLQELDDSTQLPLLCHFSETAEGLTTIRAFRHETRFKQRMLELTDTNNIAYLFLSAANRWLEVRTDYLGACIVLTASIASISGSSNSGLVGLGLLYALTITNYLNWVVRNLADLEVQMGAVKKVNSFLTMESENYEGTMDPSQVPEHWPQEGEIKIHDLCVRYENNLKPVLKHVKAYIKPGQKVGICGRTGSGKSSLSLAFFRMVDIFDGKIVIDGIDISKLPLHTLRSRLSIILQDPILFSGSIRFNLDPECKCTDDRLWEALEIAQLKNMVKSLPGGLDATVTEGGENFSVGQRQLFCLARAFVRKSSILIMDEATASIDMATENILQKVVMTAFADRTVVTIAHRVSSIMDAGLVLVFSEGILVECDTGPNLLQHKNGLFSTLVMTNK
Chain of Kir6.2/SUR2A KATP channel (mKir6.2 + rSUR2A) (Q61743 whole entry): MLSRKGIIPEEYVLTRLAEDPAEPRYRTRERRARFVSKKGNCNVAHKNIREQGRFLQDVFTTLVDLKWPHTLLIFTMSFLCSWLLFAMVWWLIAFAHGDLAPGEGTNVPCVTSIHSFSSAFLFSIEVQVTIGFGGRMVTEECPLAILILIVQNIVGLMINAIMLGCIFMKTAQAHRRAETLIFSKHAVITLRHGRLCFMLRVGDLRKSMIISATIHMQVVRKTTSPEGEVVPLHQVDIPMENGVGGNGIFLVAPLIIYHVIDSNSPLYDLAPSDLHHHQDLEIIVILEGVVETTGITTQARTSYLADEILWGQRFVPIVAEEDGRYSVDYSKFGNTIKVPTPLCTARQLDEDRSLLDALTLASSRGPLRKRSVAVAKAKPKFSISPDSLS

For orientation: IC50 means the concentration needed to halve the response being measured. In the case of `COc1ccc(Cl)cc1C(=O)NCCc1ccc(S(=O)(=O)NC(=O)NC2CCCCC2)cc1` [glibenclamide], the half-maximal inhibitory concentration (IC50) came out at 0.0195 ± 0.0061 µM.

Consider `Nc1ncnc2c1ncn2[C@@H]1O[C@H](COP(=O)(O)OP(=O)(O)OP(=O)(O)O)[C@@H](O)[C@H]1O` [ATP], for which the half-maximal inhibitory concentration (IC50) was found to be 14.4 ± 2.3 µM.
